Assays:
Test in all cases: RBC kinase panel
Format in all cases: biochemical
Conditions in all cases: ATP 10 μM, Data1, Data2
[1] = target: T1, CAMK1d (Homo sapiens, UniProt Q8IU85)
T1 construct: purchased Reaction Biology Corporation
Method: (§1) PK68 was tested at 1 μM in duplicate against a panel of 369 human kinases at Reaction Biology Corporation. Results are viewed in the human kinome phylogenetic tree.
(§2) ^a Compound PK68 was tested at 1 μM in duplicate against 369 kinases using the RBC kinase panel service of Reaction Biology Corporation. All the ATP concentrations used were 10 μM. […] Full protocol details are available at http://www.reactionbiology.com.

[2] = target: T2, PKCa (Homo sapiens, UniProt P17252)
T2 construct: purchased Reaction Biology Corporation
Method: as §1, §2

[3] = target: T3, AKT1 (Homo sapiens, UniProt P31749)
T3 construct: purchased Reaction Biology Corporation
Method: as §1, §2

[4] = target: T4, Aurora C (Homo sapiens, UniProt Q9UQB9)
T4 construct: purchased Reaction Biology Corporation
T4 sequence (Q9UQB9 whole entry): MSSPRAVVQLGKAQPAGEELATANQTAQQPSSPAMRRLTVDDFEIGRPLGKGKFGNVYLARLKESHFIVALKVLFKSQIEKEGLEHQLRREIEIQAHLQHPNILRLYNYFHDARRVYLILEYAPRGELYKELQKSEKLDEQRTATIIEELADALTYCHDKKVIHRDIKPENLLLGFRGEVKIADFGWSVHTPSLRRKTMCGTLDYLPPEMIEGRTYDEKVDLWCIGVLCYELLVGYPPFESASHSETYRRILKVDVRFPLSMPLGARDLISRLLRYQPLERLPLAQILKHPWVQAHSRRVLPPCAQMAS
Method: as §1, §2

[5] = target: T5, FMS (Homo sapiens, UniProt P07333)
T5 construct: purchased Reaction Biology Corporation
Method: as §1, §2

[6] = target: T6, ERK5/MAPK7 (Homo sapiens, UniProt Q13164)
T6 construct: purchased Reaction Biology Corporation
Method: as §1, §2

[7] = target: T7, JNK2 (Homo sapiens, UniProt P45984)
T7 construct: purchased Reaction Biology Corporation
Method: as §1, §2

[8] = target: T8, RAF1 (Homo sapiens, UniProt P04049)
T8 construct: purchased Reaction Biology Corporation
Method: as §1, §2

[9] = target: T9, ERN1/IRE1 (Homo sapiens, UniProt O75460)
T9 construct: purchased Reaction Biology Corporation
Method: as §1, §2

[10] = target: T10, JAK1 (Homo sapiens, UniProt P23458)
T10 construct: purchased Reaction Biology Corporation
Method: as §1, §2

[11] = target: T11, PIM2 (Homo sapiens, UniProt Q9P1W9)
T11 construct: purchased Reaction Biology Corporation
Method: as §1, §2

[12] = target: T12, PLK3 (Homo sapiens, UniProt Q9H4B4)
T12 construct: purchased Reaction Biology Corporation
T12 sequence (Q9H4B4 whole entry): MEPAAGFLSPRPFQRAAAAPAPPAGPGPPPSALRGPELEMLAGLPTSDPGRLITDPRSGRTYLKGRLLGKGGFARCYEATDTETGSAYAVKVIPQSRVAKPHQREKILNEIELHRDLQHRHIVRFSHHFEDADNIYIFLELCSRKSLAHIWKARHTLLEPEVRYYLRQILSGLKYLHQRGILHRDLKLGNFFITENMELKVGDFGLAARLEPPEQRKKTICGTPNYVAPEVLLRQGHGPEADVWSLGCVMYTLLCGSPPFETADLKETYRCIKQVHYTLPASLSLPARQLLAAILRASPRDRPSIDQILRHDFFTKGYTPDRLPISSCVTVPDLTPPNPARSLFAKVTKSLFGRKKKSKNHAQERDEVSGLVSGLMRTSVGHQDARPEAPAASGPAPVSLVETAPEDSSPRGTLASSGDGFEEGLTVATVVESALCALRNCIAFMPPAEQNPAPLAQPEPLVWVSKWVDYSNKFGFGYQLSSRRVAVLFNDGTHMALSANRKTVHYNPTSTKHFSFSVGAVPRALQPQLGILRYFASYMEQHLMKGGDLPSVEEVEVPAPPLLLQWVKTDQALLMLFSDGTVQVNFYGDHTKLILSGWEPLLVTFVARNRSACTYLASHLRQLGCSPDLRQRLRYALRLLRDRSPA
Method: as §1, §2

[13] = target: T13, NEK3 (Homo sapiens, UniProt P51956)
T13 construct: purchased Reaction Biology Corporation
T13 sequence (P51956 whole entry): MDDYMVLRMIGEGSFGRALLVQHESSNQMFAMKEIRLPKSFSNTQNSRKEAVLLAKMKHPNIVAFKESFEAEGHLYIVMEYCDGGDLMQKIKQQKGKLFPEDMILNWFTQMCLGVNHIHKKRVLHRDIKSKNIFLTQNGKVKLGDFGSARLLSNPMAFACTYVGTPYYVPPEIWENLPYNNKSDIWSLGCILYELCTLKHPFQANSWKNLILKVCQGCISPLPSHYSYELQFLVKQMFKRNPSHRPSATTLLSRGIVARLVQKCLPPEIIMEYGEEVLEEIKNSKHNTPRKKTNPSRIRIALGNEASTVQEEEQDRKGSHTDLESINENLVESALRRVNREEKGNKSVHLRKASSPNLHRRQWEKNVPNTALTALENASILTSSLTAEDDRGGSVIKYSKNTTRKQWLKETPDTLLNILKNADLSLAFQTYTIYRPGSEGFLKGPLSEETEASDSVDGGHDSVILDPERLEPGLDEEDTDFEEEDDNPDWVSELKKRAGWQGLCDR
Method: as §1, §2

[14] = target: T14, BRSK2 (Homo sapiens, UniProt Q8IWQ3)
T14 construct: purchased Reaction Biology Corporation
Method: as §1, §2

[15] = target: T15, PLK1 (Homo sapiens, UniProt P53350)
T15 construct: purchased Reaction Biology Corporation
Method: as §1, §2

[16] = target: T16, FER (Homo sapiens, UniProt P16591)
T16 construct: purchased Reaction Biology Corporation
Method: as §1, §2

[17] = target: T17, WNK2 (Homo sapiens, UniProt Q9Y3S1)
T17 construct: purchased Reaction Biology Corporation
Method: as §1, §2

[18] = target: T18, PBK/TOPK (Homo sapiens, UniProt Q96KB5)
T18 construct: purchased Reaction Biology Corporation
Method: as §1, §2

[19] = target: T19, EPHA2 (Homo sapiens, UniProt P29317)
T19 construct: purchased Reaction Biology Corporation
Method: as §1, §2

[20] = target: T20, PKCb1 (Homo sapiens, UniProt P05771)
T20 construct: purchased Reaction Biology Corporation
Method: as §1, §2

[21] = target: T21, GRK3 (Homo sapiens, UniProt P35626)
T21 construct: purchased Reaction Biology Corporation
Method: as §1, §2

[22] = target: T22, MYO3A (Homo sapiens, UniProt Q8NEV4)
T22 construct: purchased Reaction Biology Corporation
Method: as §1, §2

[23] = target: T23, MEK5 (Homo sapiens, UniProt Q13163)
T23 construct: purchased Reaction Biology Corporation
T23 sequence (Q13163 whole entry): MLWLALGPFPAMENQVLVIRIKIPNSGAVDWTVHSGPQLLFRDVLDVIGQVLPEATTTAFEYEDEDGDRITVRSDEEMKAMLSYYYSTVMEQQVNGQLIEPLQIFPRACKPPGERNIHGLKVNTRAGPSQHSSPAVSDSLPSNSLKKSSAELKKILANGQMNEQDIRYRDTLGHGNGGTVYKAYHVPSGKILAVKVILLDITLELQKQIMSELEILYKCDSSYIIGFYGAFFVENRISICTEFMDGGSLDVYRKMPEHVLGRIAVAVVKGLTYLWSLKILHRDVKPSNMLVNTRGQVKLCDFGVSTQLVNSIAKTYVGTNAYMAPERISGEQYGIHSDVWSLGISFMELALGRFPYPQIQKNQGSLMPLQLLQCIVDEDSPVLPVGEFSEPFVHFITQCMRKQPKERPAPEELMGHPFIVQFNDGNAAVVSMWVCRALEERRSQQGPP
Method: as §1, §2

[24] = target: T24, SIK1 (Homo sapiens, UniProt P57059)
T24 construct: purchased Reaction Biology Corporation
T24 sequence (P57059 whole entry): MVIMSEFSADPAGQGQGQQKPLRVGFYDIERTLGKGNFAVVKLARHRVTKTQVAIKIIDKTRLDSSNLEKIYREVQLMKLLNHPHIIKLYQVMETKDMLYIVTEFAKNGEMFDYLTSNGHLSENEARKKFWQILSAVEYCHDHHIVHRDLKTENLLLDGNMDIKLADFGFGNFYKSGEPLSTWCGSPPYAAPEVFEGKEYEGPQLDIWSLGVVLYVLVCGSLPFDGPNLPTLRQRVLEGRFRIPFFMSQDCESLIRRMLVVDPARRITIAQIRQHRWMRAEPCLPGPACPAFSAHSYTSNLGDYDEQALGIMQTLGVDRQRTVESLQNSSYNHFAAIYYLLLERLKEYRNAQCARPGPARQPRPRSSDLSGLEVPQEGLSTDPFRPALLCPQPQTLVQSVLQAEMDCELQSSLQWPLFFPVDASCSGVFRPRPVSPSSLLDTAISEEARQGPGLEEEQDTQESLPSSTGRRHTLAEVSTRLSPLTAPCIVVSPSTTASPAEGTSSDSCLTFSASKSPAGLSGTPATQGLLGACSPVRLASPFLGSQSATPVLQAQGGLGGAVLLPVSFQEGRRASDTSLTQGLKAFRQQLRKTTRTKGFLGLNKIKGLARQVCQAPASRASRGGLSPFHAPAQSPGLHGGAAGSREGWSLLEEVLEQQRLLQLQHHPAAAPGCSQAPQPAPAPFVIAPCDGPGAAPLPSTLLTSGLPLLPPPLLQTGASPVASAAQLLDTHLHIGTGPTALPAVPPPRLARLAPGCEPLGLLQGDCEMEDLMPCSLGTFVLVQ
Method: as §1, §2

[25] = target: T25, TAOK3/JIK (Homo sapiens, UniProt Q9H2K8)
T25 construct: purchased Reaction Biology Corporation
Method: as §1, §2

[26] = target: T26, YSK4/MAP3K19 (Homo sapiens, UniProt Q56UN5)
T26 construct: purchased Reaction Biology Corporation
Method: as §1, §2

[27] = target: T27, CDK17/cyclin Y (PCTK2) (Homo sapiens, UniProt Q00537)
T27 construct: purchased Reaction Biology Corporation
Method: as §1, §2

[28] = target: T28, WEE1 (Homo sapiens, UniProt P30291)
T28 construct: purchased Reaction Biology Corporation
Method: as §1, §2

[29] = target: T29, DYRK3 (Homo sapiens, UniProt O43781)
T29 construct: purchased Reaction Biology Corporation
Method: as §1, §2

[30] = target: T30, ALK2/ACVR1 (Homo sapiens, UniProt Q04771)
T30 construct: purchased Reaction Biology Corporation
T30 sequence (Q04771 21-509): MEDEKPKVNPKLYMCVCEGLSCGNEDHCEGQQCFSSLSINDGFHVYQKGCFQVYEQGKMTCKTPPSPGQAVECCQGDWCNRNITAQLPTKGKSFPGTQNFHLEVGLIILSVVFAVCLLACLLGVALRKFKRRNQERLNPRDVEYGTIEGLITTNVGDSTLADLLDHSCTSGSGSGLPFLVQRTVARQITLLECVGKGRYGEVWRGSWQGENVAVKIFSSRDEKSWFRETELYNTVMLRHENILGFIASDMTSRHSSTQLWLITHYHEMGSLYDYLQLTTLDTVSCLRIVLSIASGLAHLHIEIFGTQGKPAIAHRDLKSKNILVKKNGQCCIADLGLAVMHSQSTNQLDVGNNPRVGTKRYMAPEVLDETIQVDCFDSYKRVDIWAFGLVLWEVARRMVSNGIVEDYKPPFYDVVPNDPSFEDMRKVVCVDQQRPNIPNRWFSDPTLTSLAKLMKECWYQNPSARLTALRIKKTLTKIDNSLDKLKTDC
Method: as §1, §2

[31] = target: T31, ULK2 (Homo sapiens, UniProt Q8IYT8)
T31 construct: purchased Reaction Biology Corporation
Method: as §1, §2

[32] = target: T32, PKCeta (Homo sapiens, UniProt P24723)
T32 construct: purchased Reaction Biology Corporation
T32 sequence (P24723 whole entry): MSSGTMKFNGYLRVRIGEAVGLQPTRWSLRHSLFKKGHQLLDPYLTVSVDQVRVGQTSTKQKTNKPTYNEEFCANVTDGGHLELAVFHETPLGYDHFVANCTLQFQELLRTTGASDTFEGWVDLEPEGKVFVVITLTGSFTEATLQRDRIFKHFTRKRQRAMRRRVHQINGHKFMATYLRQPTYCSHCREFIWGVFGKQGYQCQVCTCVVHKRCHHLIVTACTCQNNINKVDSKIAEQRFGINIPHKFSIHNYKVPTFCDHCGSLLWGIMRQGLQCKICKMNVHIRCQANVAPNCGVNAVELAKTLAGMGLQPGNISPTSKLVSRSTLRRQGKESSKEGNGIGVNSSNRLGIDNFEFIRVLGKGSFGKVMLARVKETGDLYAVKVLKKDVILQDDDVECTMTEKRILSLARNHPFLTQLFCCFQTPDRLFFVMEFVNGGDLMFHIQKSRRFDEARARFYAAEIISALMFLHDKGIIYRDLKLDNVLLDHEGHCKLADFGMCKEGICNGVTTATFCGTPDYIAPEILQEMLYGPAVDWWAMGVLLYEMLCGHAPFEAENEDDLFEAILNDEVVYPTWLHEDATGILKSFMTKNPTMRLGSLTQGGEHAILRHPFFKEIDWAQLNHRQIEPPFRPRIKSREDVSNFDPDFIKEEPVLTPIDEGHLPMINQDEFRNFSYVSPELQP
Method: as §1, §2

[33] = target: T33, DLK/MAP3K12 (Homo sapiens, UniProt Q12852)
T33 construct: purchased Reaction Biology Corporation
T33 sequence (Q12852 whole entry): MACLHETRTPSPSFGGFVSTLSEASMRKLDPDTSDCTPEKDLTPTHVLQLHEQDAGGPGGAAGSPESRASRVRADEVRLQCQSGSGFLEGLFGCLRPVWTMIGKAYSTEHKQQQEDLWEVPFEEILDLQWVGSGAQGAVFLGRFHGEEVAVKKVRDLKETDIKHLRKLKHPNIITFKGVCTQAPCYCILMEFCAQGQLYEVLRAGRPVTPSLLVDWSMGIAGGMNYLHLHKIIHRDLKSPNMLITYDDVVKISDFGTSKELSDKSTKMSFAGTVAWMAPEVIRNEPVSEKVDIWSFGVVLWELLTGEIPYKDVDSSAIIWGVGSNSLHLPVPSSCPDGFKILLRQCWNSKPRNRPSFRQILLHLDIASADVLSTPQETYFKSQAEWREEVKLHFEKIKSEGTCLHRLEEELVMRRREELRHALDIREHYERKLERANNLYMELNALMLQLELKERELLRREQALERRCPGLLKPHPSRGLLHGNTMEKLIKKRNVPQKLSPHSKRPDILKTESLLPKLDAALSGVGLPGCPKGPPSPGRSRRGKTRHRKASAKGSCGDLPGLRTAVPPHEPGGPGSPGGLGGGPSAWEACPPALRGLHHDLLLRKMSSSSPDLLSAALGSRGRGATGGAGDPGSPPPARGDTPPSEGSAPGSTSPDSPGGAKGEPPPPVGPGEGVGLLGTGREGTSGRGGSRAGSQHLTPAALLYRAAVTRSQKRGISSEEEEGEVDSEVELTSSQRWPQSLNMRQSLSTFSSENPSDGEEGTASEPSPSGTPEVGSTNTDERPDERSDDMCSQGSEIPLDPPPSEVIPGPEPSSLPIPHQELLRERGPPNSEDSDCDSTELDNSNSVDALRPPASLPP
Method: as §1, §2

## CC(=O)Nc1nc2ccc(-c3cnc(C)c(NC(=O)OC4CCCCC4)c3)cc2s1 [PK68, cyclohexyl (5-(2-acetamidobenzo[d]thiazol-6-yl)-2-methylpyridin-3-yl)carbamate]
[1]; 1 μM
  Activity%: 100.76%
[1]
  activity at 1 µM: 103%
[2]; 1 μM
  Activity%: 98.94%
[2]
  activity at 1 µM: 99.5%
[3]; 1 μM
  Activity%: 99.12%
[3]
  activity at 1 µM: 99.2%
[4]; 1 μM
  Activity%: 92.22%
[4]
  activity at 1 µM: 94.1%
[5]; 1 μM
  Activity%: 71.06%
[5]
  activity at 1 µM: 71.1%
[6]; 1 μM
  Activity%: 98.25%
[6]
  activity at 1 µM: 99.3%
[7]; 1 μM
  Activity%: 101.11%
[7]
  activity at 1 µM: 104%
[8]; 1 μM
  Activity%: 75.37%
[8]
  activity at 1 µM: 76.1%
[9]; 1 μM
  Activity%: 88.33%
[9]
  activity at 1 µM: 88.7%
[10]; 1 μM
  Activity%: 99.20%
[10]
  activity at 1 µM: 99.5%
[11]; 1 μM
  Activity%: 111.50%
[11]
  activity at 1 µM: 114%
[12]; 1 μM
  Activity%: 104.01%
[12]
  activity at 1 µM: 105%
[13]; 1 μM
  Activity%: 116.50%
[13]
  activity at 1 µM: 119%
[14]; 1 μM
  Activity%: 98.88%
[14]
  activity at 1 µM: 100%
[15]; 1 μM
  Activity%: 93.68%
[15]
  activity at 1 µM: 94.6%
[16]; 1 μM
  Activity%: 100.70%
[16]
  activity at 1 µM: 102%
[17]; 1 μM
  Activity%: 94.21%
[17]
  activity at 1 µM: 94.6%
[18]; 1 μM
  Activity%: 97.84%
[18]
  activity at 1 µM: 98.4%
[19]; 1 μM
  Activity%: 94.92%
[19]
  activity at 1 µM: 95.2%
[20]; 1 μM
  Activity%: 84.55%
[20]
  activity at 1 µM: 84.8%
[21]; 1 μM
  Activity%: 102.09%
[21]
  activity at 1 µM: 103%
[22]; 1 μM
  Activity%: 91.22%
[22]
  activity at 1 µM: 92.2%
[23]; 1 μM
  Activity%: 97.06%
[23]
  activity at 1 µM: 97.5%
[24]; 1 μM
  Activity%: 97.74%
[24]
  activity at 1 µM: 98.4%
[25]; 1 μM
  Activity%: 93.52%
[25]
  activity at 1 µM: 94.6%
[26]; 1 μM
  Activity%: 94.66%
[26]
  activity at 1 µM: 95%
[27]; 1 μM
  Activity%: 77.31%
[27]
  activity at 1 µM: 79%
[28]; 1 μM
  Activity%: 94.05%
[28]
  activity at 1 µM: 95.7%
[29]; 1 μM
  Activity%: 81.73%
[29]
  activity at 1 µM: 83%
[30]; 1 μM
  Activity%: 101.72%
[30]
  activity at 1 µM: 103%
[31]; 1 μM
  Activity%: 101.80%
[31]
  activity at 1 µM: 102%
[32]; 1 μM
  Activity%: 90.40%
[32]
  activity at 1 µM: 92.8%
[33]; 1 μM
  Activity%: 94.64%
[33]
  activity at 1 µM: 103%
